In PMC9718554, “Discovery of a fragment hit compound targeting D-Ala:D-Ala ligase of bacterial peptidoglycan biosynthesis” (Journal of Enzyme Inhibition and Medicinal Chemistry, 2022):

What follows are compounds tested against T1, E. coli DdlB enzyme (D-alanine:D-alanine ligase) (Escherichia coli, UniProt P07862) (assay: biochemical). Details: read-out: DdlB RA.
T1 construct: made in house; host or cells: E. coli

**Q.** How did the remaining activity at 2500 µM turn out when `N#Cc1ccc(CN)cc1` [FLD152] was run?
**A.** The remaining activity at 2500 µM was 97%.

Same assay, conditions: residual activity of DdlB; fragment library screening; tested concentration 2.5 mM; read-out: DdlB RA

**Q.** Which remaining activity at 2500 µM does the source give for `Nc1c(Br)cc(Br)cc1C(=O)O` [FLD132] here?
**A.** The remaining activity at 2500 µM was 100%.

**Q.** How did the remaining activity at 2500 µM turn out when `Nc1ncccn1` [FLD133] was run?
**A.** Its remaining activity at 2500 µM is 102%.

**Q.** Which remaining activity at 2500 µM does the source give for `O=C(O)c1cccnc1F` [FLD134] here?
**A.** Its remaining activity at 2500 µM is 98%.

**Q.** How did the remaining activity at 2500 µM turn out when `COc1c(C)[nH]ccc1=O` [FLD135] was run?
**A.** The remaining activity at 2500 µM was 96%.

**Q.** With `N#Cc1ccsc1N` [FLD136] as the compound, how does the remaining activity at 2500 µM read?
**A.** The remaining activity at 2500 µM was 100%.

**Q.** For `N#Cc1c(N)cccc1F` [FLD137], which remaining activity at 2500 µM is on record?
**A.** The remaining activity at 2500 µM was 98%.

**Q.** `Nn1cnnc1` [FLD138] was tested. Which remaining activity at 2500 µM did it give?
**A.** Its remaining activity at 2500 µM is 96%.

**Q.** Which remaining activity at 2500 µM does the source give for `CC(=O)c1ccc[nH]1` [FLD139] here?
**A.** Its remaining activity at 2500 µM is 95%.

**Q.** Which remaining activity at 2500 µM does the source give for `CNc1nnc(C(F)(F)F)s1` [FLD140] here?
**A.** The remaining activity at 2500 µM was 94%.

**Q.** How did the remaining activity at 2500 µM turn out when `O=C(O)CCc1cccnc1` [FLD141] was run?
**A.** Its remaining activity at 2500 µM is 95%.

**Q.** How did the remaining activity at 2500 µM turn out when `O=[N+]([O-])c1ccc(Cl)nc1` [FLD142] was run?
**A.** Its remaining activity at 2500 µM is 92%.

**Q.** For `COC(=O)c1cscc1N` [FLD143], which remaining activity at 2500 µM is on record?
**A.** The remaining activity at 2500 µM was 92%.

**Q.** Which remaining activity at 2500 µM does the source give for `Nc1ncnc2[nH]ccc12` [FLD144] here?
**A.** Its remaining activity at 2500 µM is 94%.

**Q.** How did the remaining activity at 2500 µM turn out when `Nc1ccc(Br)cn1` [FLD145] was run?
**A.** Its remaining activity at 2500 µM is 92%.

**Q.** Which remaining activity at 2500 µM does the source give for `O=C(O)Cc1cccs1` [FLD146] here?
**A.** The remaining activity at 2500 µM was 95%.

**Q.** For `Nc1ccc2nsnc2c1` [FLD147], which remaining activity at 2500 µM is on record?
**A.** The remaining activity at 2500 µM was 100%.

**Q.** For `O=C(O)Cc1ccc(F)c(C(F)(F)F)c1` [FLD148], which remaining activity at 2500 µM is on record?
**A.** Its remaining activity at 2500 µM is 100%.

**Q.** Which remaining activity at 2500 µM does the source give for `N#Cc1ccc(CCO)cc1` [FLD149] here?
**A.** The remaining activity at 2500 µM was 100%.

**Q.** With `Cc1nnc(N)s1` [FLD150] as the compound, how does the remaining activity at 2500 µM read?
**A.** The remaining activity at 2500 µM was 95%.

**Q.** `O=C(O)c1ccncc1F` [FLD151] was tested. Which remaining activity at 2500 µM did it give?
**A.** Its remaining activity at 2500 µM is 98%.

**Q.** Which remaining activity at 2500 µM does the source give for `Cc1cc(N)[nH]n1` [FLD153] here?
**A.** The remaining activity at 2500 µM was 98%.

**Q.** `Clc1ncnc2[nH]ccc12` [FLD154] was tested. Which remaining activity at 2500 µM did it give?
**A.** Its remaining activity at 2500 µM is 95%.

**Q.** `O=C1Cc2cc([N+](=O)[O-])ccc2N1` [FLD155] was tested. Which remaining activity at 2500 µM did it give?
**A.** Its remaining activity at 2500 µM is 99%.

**Q.** How did the remaining activity at 2500 µM turn out when `O=C(O)Cc1c(Cl)cccc1Cl` [FLD156] was run?
**A.** Its remaining activity at 2500 µM is 100%.

**Q.** For `NCc1nc2ccccc2[nH]1` [FLD157], which remaining activity at 2500 µM is on record?
**A.** Its remaining activity at 2500 µM is 105%.

**Q.** For `Fc1cc(Br)ccc1CN1CCCNCC1` [FLD158], which remaining activity at 2500 µM is on record?
**A.** The remaining activity at 2500 µM was 63%.

**Q.** How did the remaining activity at 2500 µM turn out when `COc1ccc(Br)cc1OC` [FLD159] was run?
**A.** The remaining activity at 2500 µM was 98%.

**Q.** For `OCCc1ccc(Cl)cc1` [FLD160], which remaining activity at 2500 µM is on record?
**A.** Its remaining activity at 2500 µM is 92%.

**Q.** For `CCc1cccc(N)n1` [FLD162], which remaining activity at 2500 µM is on record?
**A.** Its remaining activity at 2500 µM is 100%.

**Q.** With `N#Cc1ccc(F)c(F)c1` [FLD163] as the compound, how does the remaining activity at 2500 µM read?
**A.** Its remaining activity at 2500 µM is 95%.

**Q.** Which remaining activity at 2500 µM does the source give for `CCOC(=O)Cc1ccccn1` [FLD164] here?
**A.** The remaining activity at 2500 µM was 97%.

**Q.** How did the remaining activity at 2500 µM turn out when `Cc1ccc(O)c(C)c1` [FLD165] was run?
**A.** The remaining activity at 2500 µM was 91%.

**Q.** How did the remaining activity at 2500 µM turn out when `c1ccc2c(c1)CCNC2` [FLD166] was run?
**A.** Its remaining activity at 2500 µM is 77%.

**Q.** How did the remaining activity at 2500 µM turn out when `Cc1cc(C)nc(C)c1` [FLD167] was run?
**A.** Its remaining activity at 2500 µM is 95%.

**Q.** `CC(O)c1ccccc1` (centres unmarked) [FLD168] was tested. Which remaining activity at 2500 µM did it give?
**A.** Its remaining activity at 2500 µM is 98%.

**Q.** For `Brc1ccccn1` [FLD169], which remaining activity at 2500 µM is on record?
**A.** The remaining activity at 2500 µM was 100%.

**Q.** How did the remaining activity at 2500 µM turn out when `NCCc1ccc(Br)cc1` [FLD170] was run?
**A.** The remaining activity at 2500 µM was 93%.

**Q.** Which remaining activity at 2500 µM does the source give for `Cc1nc2ccccc2nc1O` [FLD171] here?
**A.** The remaining activity at 2500 µM was 95%.

**Q.** How did the remaining activity at 2500 µM turn out when `Oc1c(F)c(F)c(F)c(F)c1F` [FLD172] was run?
**A.** Its remaining activity at 2500 µM is 92%.

**Q.** How did the remaining activity at 2500 µM turn out when `Oc1cccc(C(F)(F)F)c1` [FLD173] was run?
**A.** Its remaining activity at 2500 µM is 91%.

**Q.** For `NCc1ccccc1Cl` [FLD174], which remaining activity at 2500 µM is on record?
**A.** Its remaining activity at 2500 µM is 100%.

**Q.** Which remaining activity at 2500 µM does the source give for `NCCc1cccc(F)c1` [FLD175] here?
**A.** Its remaining activity at 2500 µM is 94%.

**Q.** Which remaining activity at 2500 µM does the source give for `CC(C)c1cccc(O)c1` [FLD176] here?
**A.** Its remaining activity at 2500 µM is 95%.

**Q.** For `OCCc1ccccc1C(F)(F)F` [FLD177], which remaining activity at 2500 µM is on record?
**A.** Its remaining activity at 2500 µM is 100%.

**Q.** Which remaining activity at 2500 µM does the source give for `CCOC(=O)c1cccnc1C` [FLD178] here?
**A.** Its remaining activity at 2500 µM is 99%.

**Q.** With `CNc1ccccc1N` [FLD179] as the compound, how does the remaining activity at 2500 µM read?
**A.** Its remaining activity at 2500 µM is 84%.

**Q.** For `N#Cc1ccccn1` [FLD180], which remaining activity at 2500 µM is on record?
**A.** The remaining activity at 2500 µM was 98%.

**Q.** Which remaining activity at 2500 µM does the source give for `CCOC(=O)C(C#N)c1ccccc1` (centres unmarked) [FLD181] here?
**A.** The remaining activity at 2500 µM was 89%.

**Q.** Which remaining activity at 2500 µM does the source give for `C#Cc1cccc(OC)c1` [FLD182] here?
**A.** Its remaining activity at 2500 µM is 91%.
